Values of other authors in US20230095832A1, “ADHESION BARRIER COMPOSITION, METHODS OF FABRICATION AND USE THEREOF” (SPOROGENICS PTE. LTD., priority 2020, published 2023).

Tested on: intra-abdominal adhesions

O=C(O)c1cc(O)c(O)c(O)c1 [gallic acid]
IL-6, TNF-α, TGF-b1 serum levels and NF-kB phosphorylation (further studies): significantly reduced | intra-abdominal adhesions (rats, compared to a control): decrease intra-abdominal adhesions
